In patent publication US8445493B2, “Tetrasubstituted pyridazines hedgehog pathway antagonists” (Eli Lilly and Company, priority 2008, dated 2013):
Where a name gives a salt, the structure may show the parent alone.

Tested on: Gli1 transcript in Shh-stimulated Daoy cells
Experiment: Functional assay for measuring the inhibition of Gli1 in Daoy cells (bDNA assay)
Format: cell-based
Settings: Homo sapiens; Daoy cells stimulated with Shh conditioned media, 24 hours incubation with compound, Gli1 transcript by bDNA luminescence
Description: Biological activity is determined using a functional assay in Daoy neuronal cancer cells and measures levels of Gli1 ribonucleic acid via a bDNA (branched deoxyribonucleic acid) assay system (Panomics, Inc., Fremont, Calif.). Gli was originally discovered in a Glioblastoma cell line and encodes a zinc finger protein that is activated by Shh signaling. The maximum response is obtained by inducing Gli1 transcription in the Daoy cells with conditioned medium (human embryonic kidney, HEK-293 cells stably expressing recombinant Shh) for 24 hours and then measuring the amount of stimulated Gli1 transcript. […]
The bDNA assay system utilizes the technology of branched-chain DNA to allow amplification of a target ribonucleic acid (transcript). […] The addition of a chemilumigenic substrate during the amplification step allows for detection using luminescence. […]
Daoy cells are grown to confluency in tissue culture T225-flasks in Daoy growth media containing Minimum Essential Medium (MEM) plus 10% Fetal Bovine Serum (FBS) with […] non-essential amino acids and 1 mM sodium pyruvate. The cells are removed from the T225-flasks using trypsin ethylenediaminetetraacetic acid (EDTA), centrifuged, resuspended in media, and then counted. […]

- IC50: ~1.26 nM
Structure (SMILES): Cc1c(-c2ccccc2)nnc(N2CCN(C(=O)NC3CCC(F)(F)CC3)[C@@H](C)C2)c1C [Example 1, (S)—N-(4,4-Difluorocyclohexyl)-4-(4,5-dimethyl-6-phenylpyridazin-3-yl)-2-methylpiperazine-1-carboxamide hydrochloride]
